Key:
Assay in all cases: Bliss excess, mean over the matrix (fraction); higher = more synergy
[1] = tested on: DiFi (Colorectal Carcinoma)
How it was run: (§1)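 Cell lines in DMEM/F12 or RPMI with 10% FBS were plated in 1536-well plates, held 24 hours at 37°C, 5% CO2, then given two-drug dose matrices for 72 hours (DMSO typically 0.2%). Viability was read by CellTiter-Glo 2.0 luminescence and scaled as inhibition from 0 (vehicle wells) to 1 (blank wells). Combination Emax is the second-highest inhibition in the matrix; Bliss excess is observed combination effect minus expected EA + EB − EA·EB, EA and EB being single-agent effects.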

[2] = tested on: MS751 (Cervical Carcinoma)
How it was run: as §1

[3] = tested on: HL-60 (Acute Myeloid Leukemia)
How it was run: as §1

[4] = tested on: ES8 (Ewing's Sarcoma)
How it was run: as §1

[5] = tested on: ES1 (Ewing's Sarcoma)
How it was run: as §1

[6] = tested on: CHP-212 (Neuroblastoma)
How it was run: as §1

[7] = tested on: LN-18 (Glioblastoma)
How it was run: as §1

[8] = tested on: COLO-678 (Colorectal Carcinoma)
How it was run: as §1

[9] = tested on: MFM-223 (Breast Carcinoma)
How it was run: as §1

[10] = tested on: BL-41 (Burkitt's Lymphoma)
How it was run: as §1

[11] = tested on: NCI-H2818 (Mesothelioma)
How it was run: as §1

[12] = tested on: MOLT-16 (T-Lymphoblastic Leukemia)
How it was run: as §1

[13] = tested on: KYSE-180 (Esophageal Squamous Cell Carcinoma)
How it was run: as §1

[14] = tested on: WM-115 (Melanoma)
How it was run: as §1

[15] = tested on: U251 (Low Grade Glioma)
How it was run: as §1

[16] = tested on: PANC-08-13 (Pancreatic Carcinoma)
How it was run: as §1

[17] = tested on: P12-ICHIKAWA (T-Lymphoblastic Leukemia)
How it was run: as §1

[18] = tested on: KCL-22 (Chronic Myelogenous Leukemia)
How it was run: as §1

[19] = tested on: SU-DHL-8 (B-Cell Non-Hodgkin's Lymphoma)
How it was run: as §1

[20] = tested on: SR (Other Blood Carcinomas)
How it was run: as §1

Compound	Bliss excess [1]	Bliss excess [2]	Bliss excess [3]	Bliss excess [4]	Bliss excess [5]	Bliss excess [6]	Bliss excess [7]	Bliss excess [8]	Bliss excess [9]	Bliss excess [10]	Bliss excess [11]	Bliss excess [12]	Bliss excess [13]	Bliss excess [14]	Bliss excess [15]	Bliss excess [16]	Bliss excess [17]	Bliss excess [18]	Bliss excess [19]	Bliss excess [20]
COc1nnc2ccc(N3CCC(c4ccc(OCCN5CCN(C)C(=O)[C@H]5C)cc4)CC3)nn12 [AZD5153] + Cn1cnc2c(F)c(Nc3ccc(Br)cc3Cl)c(C(=O)NOCCO)cc21 [Selumetinib] (first compound max 1 µM, 7x7, partner max 10 µM)	-0.0011	0.0385	0.0707	0.0303	-0.0511	-0.0285	0.0152	-0.0382	-0.0299	-0.0526	-0.0031	-0.0353	0.046	0.15	-0.0062	0.0924	0.0746	0.0841	0.0473	-0.0614
COc1nnc2ccc(N3CCC(c4ccc(OCCN5CCN(C)C(=O)[C@H]5C)cc4)CC3)nn12 [AZD5153] + CCN(CCO)CCCOc1ccc2c(Nc3cc(CC(=O)Nc4cccc(F)c4)[nH]n3)ncnc2c1 [AZD2811] (first compound max 1 µM, 7x7, partner max 1 µM)	-0.068	0.0349	-0.0076	-0.0119	-0.0504	-0.027	-0.107	-0.0409	-0.0622	-0.0369	-0.0083	-0.0173	0.0356	-0.0814	0.0064	-0.0175	0.0024	0.0425	0.107	-0.0672
CN(C)CCCOc1ccc(-c2ccc3ncc4c(c3c2)n(C2CCOCC2)c(=O)n4C)cn1 [AZD0156] + O=C(c1cc(Cc2n[nH]c(=O)c3ccccc23)ccc1F)N1CCN(C(=O)C2CC2)CC1 [Olaparib] (first compound max 3 µM, partner max 3 µM)	-0.0082	-0.0033	0.141	0.39	0.245	0.222	0.0366	-0.0152	-0.0186	0.127	-0.0202	0.397	0.0654	0.0028	0.0345	-0.0215	0.191	0.157	0.0543	0.194
COc1nnc2ccc(N3CCC(c4ccc(OCCN5CCN(C)C(=O)[C@H]5C)cc4)CC3)nn12 [AZD5153] + C[C@@H]1COCCN1C2=NC(=NC(=C2)C3(CC3)[S@](=N)(=O)C)C4=C5C=CNC5=NC=C4 [AZD6738] (first compound max 1 µM, 7x7, partner max 10 µM)	0.0524	0.0833	-0.0003	-0.0096	-0.015	-0.0197	-0.02	0.0502	-0.0011	-0.0562	-0.0383	-0.0105	0.0656	-0.0276	0.0544	0.035	0.055	-0.0188	0.0042	-0.016
COc1cccc(OCCCN)c1-c1cc(Nc2cnc(C#N)cn2)n[nH]1 [Prexasertib] + CCc1c2c(nc3ccc(O)cc13)-c1cc3c(c(=O)n1C2)COC(=O)[C@]3(O)CC [SN-38] (first compound max 1 µM, 7x7, partner max 0.3 µM)	-0.0153	0.0628	-0.0203	-0.0301	0.0085	-0.094	0.07	-0.0355	0.05	-0.0231	-0.0745	0.0103	0.0525	-0.0492	0.0241	0.0182	-0.0253	0.0175	-0.0171	-0.0378
CC1(C)CCC(CN2CCN(c3ccc(C(=O)NS(=O)(=O)c4ccc(NCC5CCOCC5)c([N+](=O)[O-])c4)c(Oc4cnc5[nH]ccc5c4)c3)CC2)=C(c2ccc(Cl)cc2)C1 [Venetoclax] + C[C@@H](Nc1cc(F)cc(F)c1)c1cc(C(=O)N(C)C)cc2c(=O)cc(N3CCOCC3)oc12 [AZD8186] (first compound max 1 µM, 7x7, partner max 3 µM)	-0.021	0.006	0.0249	-0.0777	-0.0374	-0.0118	-0.0273	-0.0975	-0.0187	0.0218	-0.0557	0.0388	-0.0031	-0.0112	-0.0431	-0.031	-0.0097	0.0129	-0.041	-0.027
CN(CCO)CC[C@H](CSc1ccccc1)Nc1ccc(S(=O)(=O)NC(=O)c2ccc(N3CCC([C@@H](O)c4ccccc4-c4ccc(Cl)cc4)CC3)cc2)cc1S(=O)(=O)C(F)(F)F [AZD4320] + C=CCn1c(=O)c2cnc(Nc3ccc(N4CCN(C)CC4)cc3)nc2n1-c1cccc(C(C)(C)O)n1 [AZD1775] (first compound max 1 µM, partner max 1 µM)	0.007	-0.0494	0.0574	0.0959	0.0958	-0.0137	0.0152	-0.0459	-0.0103	0.0361	-0.0586	0.0417	0.0258	0.0052	-0.0676	-0.0019	0.0899	0.0022	0.0017	0.254
CS(=O)(=O)CCNCc1ccc(-c2ccc3ncnc(Nc4ccc(OCc5cccc(F)c5)c(Cl)c4)c3c2)o1 [Lapatinib] + C[C@@H](Oc1cc(-c2cnn(C3CCNCC3)c2)cnc1N)c1c(Cl)ccc(F)c1Cl [Crizotinib] (first compound max 10 µM, 7x7, partner max 10 µM)	0.0187	0.0207	0.019	-0.0424	-0.0346	-0.0741	-0.0342	-0.0488	0.0148	-0.0236	-0.0019	0.0062	0.0476	-0.0237	-0.0586	-0.0246	-0.0077	0.0178	0.0546	0.019

Reference: the supplement of paper PMC11061612
